Experimental data taken from PubChem BioAssay AID1963975 (Molecular Pharmacology Branch, DTP, NCI, 2024).
Blank lines part the entries; values can stand above or below the compound they belong to.

Test system: 624824-186-R-J2-PDC multicell spheroids, viability
Assay: Anticancer human tumor 624824-186-R-J2-PDC patient-derived colon adenocarcinoma cell line growth inhibition [PI3K]
Conditions: for IC50: curve of first compound; for viability, T/C: stronger effect = lower value
Summary of the method: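 We assembled tumor spheroids that included a stromal compartment of HUVEC and MSCs, then exposed them to targeted agents alone and together with PI3K pathway inhibitors. Concentration series descended by half-log from clinically achievable Cmax levels. Viability served as the endpoint.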

[1] = second compound 0.0316 µM, first compound 0.0316 µM
[2] = second compound 0.0316 µM, first compound 0.1 µM
[3] = second compound 0.0316 µM, first compound 0.316 µM
[4] = second compound 0.0316 µM, first compound 1 µM
[5] = second compound 0.0316 µM, first compound 3.16 µM
[6] = second compound 0.0316 µM, first compound 10 µM
[7] = second compound 0.1 µM, first compound 0.0316 µM
[8] = second compound 0.1 µM, first compound 0.1 µM
[9] = second compound 0.1 µM, first compound 0.316 µM
[10] = second compound 0.1 µM, first compound 1 µM
[11] = second compound 0.1 µM, first compound 3.16 µM
[12] = second compound 0.1 µM, first compound 10 µM
[13] = second compound 0.316 µM, first compound 0.0316 µM
[14] = second compound 0.316 µM, first compound 0.1 µM
[15] = second compound 0.316 µM, first compound 0.316 µM
[16] = second compound 0.316 µM, first compound 1 µM
[17] = second compound 0.316 µM, first compound 3.16 µM
[18] = second compound 0.316 µM, first compound 10 µM
[19] = second compound 1 µM, first compound 0.0316 µM
[20] = second compound 1 µM, first compound 0.1 µM
[21] = second compound 1 µM, first compound 0.316 µM
[22] = second compound 1 µM, first compound 1 µM
[23] = second compound 1 µM, first compound 3.16 µM
[24] = second compound 1 µM, first compound 10 µM
[25] = second compound 3.16 µM, first compound 0.0316 µM
[26] = second compound 3.16 µM, first compound 0.1 µM
[27] = second compound 3.16 µM, first compound 0.316 µM
[28] = second compound 3.16 µM, first compound 1 µM
[29] = second compound 3.16 µM, first compound 3.16 µM
[30] = second compound 3.16 µM, first compound 10 µM
[31] = second compound 10 µM, first compound 0.0316 µM
[32] = second compound 10 µM, first compound 0.1 µM
[33] = second compound 10 µM, first compound 0.316 µM
[34] = second compound 10 µM, first compound 1 µM
[35] = second compound 10 µM, first compound 3.16 µM
[36] = second compound 10 µM, first compound 10 µM
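Further: spheroids exposed to agents for 7 days before viability read.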
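Wherever viability, T/C is given: 100% = DMSO vehicle treated spheroids.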

IC50 (second compound 0.0316 µM): > 10 µM | IC50 (second compound 0.1 µM): > 10 µM | IC50 (second compound 0.316 µM): > 10 µM | IC50 (second compound 1 µM): > 10 µM | IC50 (second compound 3.16 µM): > 10 µM | IC50 (second compound 10 µM): > 10 µM
Compound: C#Cc1c(F)ccc2cc(O)cc(-c3ncc4c(N5CC6CCC(C5)N6)nc(OCC56CCCN5CC(F)C6)nc4c3F)c12 (stereo unspecified) + Cc1nc(NC(=O)N2CCCC2C(N)=O)sc1-c1ccnc(C(C)(C)C(F)(F)F)c1
viability, T/C [1]: 86.3% | viability, T/C [2]: 82.9% | viability, T/C [3]: 70.8% | viability, T/C [4]: 80.9% | viability, T/C [5]: 96.7% | viability, T/C [6]: 71% | viability, T/C [7]: 90.9% | viability, T/C [8]: 83.5% | viability, T/C [9]: 73% | viability, T/C [10]: 76.6% | viability, T/C [11]: 88.6% | viability, T/C [12]: 60.4% | viability, T/C [13]: 74.4% | viability, T/C [14]: 67.2% | viability, T/C [15]: 81.1% | viability, T/C [16]: 84.2% | viability, T/C [17]: 70.9% | viability, T/C [18]: 73.2% | viability, T/C [19]: 97% | viability, T/C [20]: 82.7% | viability, T/C [21]: 76.1% | viability, T/C [22]: 82.1% | viability, T/C [23]: 79.8% | viability, T/C [24]: 82.2% | viability, T/C [25]: 78.3% | viability, T/C [26]: 83.8% | viability, T/C [27]: 69.5% | viability, T/C [28]: 81.8% | viability, T/C [29]: 81.2% | viability, T/C [30]: 71.5% | viability, T/C [31]: 73.7% | viability, T/C [32]: 74.2% | viability, T/C [33]: 60% | viability, T/C [34]: 58.5% | viability, T/C [35]: 58% | viability, T/C [36]: 56.3%

IC50 (second compound 0.0316 µM): > 10 µM | IC50 (second compound 0.1 µM): > 10 µM | IC50 (second compound 0.316 µM): > 10 µM | IC50 (second compound 1 µM): > 10 µM | IC50 (second compound 3.16 µM): > 10 µM | IC50 (second compound 10 µM): > 10 µM
Compound: CC(Cn1ccc(-c2ccc(C#N)c(Cl)c2)n1)NC(=O)c1cc(C(C)O)[nH]n1 (stereo unspecified) + Cc1nc(NC(=O)N2CCCC2C(N)=O)sc1-c1ccnc(C(C)(C)C(F)(F)F)c1
viability, T/C [1]: 85.3% | viability, T/C [2]: 111% | viability, T/C [3]: 70.8% | viability, T/C [4]: 92.2% | viability, T/C [5]: 93.3% | viability, T/C [6]: 114% | viability, T/C [7]: 102% | viability, T/C [8]: 76.3% | viability, T/C [9]: 74.3% | viability, T/C [10]: 76.6% | viability, T/C [11]: 88.2% | viability, T/C [12]: 90% | viability, T/C [13]: 96.9% | viability, T/C [14]: 90.5% | viability, T/C [15]: 86.1% | viability, T/C [16]: 76.9% | viability, T/C [17]: 82.5% | viability, T/C [18]: 85.7% | viability, T/C [19]: 88.6% | viability, T/C [20]: 69.9% | viability, T/C [21]: 71.5% | viability, T/C [22]: 71.6% | viability, T/C [23]: 87.9% | viability, T/C [24]: 86.9% | viability, T/C [25]: 80.5% | viability, T/C [26]: 93% | viability, T/C [27]: 89.7% | viability, T/C [28]: 78.7% | viability, T/C [29]: 80.2% | viability, T/C [30]: 84.7% | viability, T/C [31]: 64.8% | viability, T/C [32]: 65.2% | viability, T/C [33]: 74.8% | viability, T/C [34]: 61.4% | viability, T/C [35]: 69.6% | viability, T/C [36]: 66.6%

IC50 (second compound 0.0316 µM): 4.26 µM | IC50 (second compound 0.1 µM): 4.34 µM | IC50 (second compound 0.316 µM): 4.4 µM | IC50 (second compound 1 µM): 4.64 µM | IC50 (second compound 3.16 µM): 3.67 µM | IC50 (second compound 10 µM): 1.61 µM
Compound: CC1(C)CCC(Nc2ncc(C(F)(F)F)c(-c3c[nH]c4c(P(C)(C)=O)c(C#N)ccc34)n2)CN1 (stereo unspecified) + Cc1nc(NC(=O)N2CCCC2C(N)=O)sc1-c1ccnc(C(C)(C)C(F)(F)F)c1
viability, T/C [1]: 81.3% | viability, T/C [2]: 99.4% | viability, T/C [3]: 103% | viability, T/C [4]: 121% | viability, T/C [5]: 64.8% | viability, T/C [6]: 7.6% | viability, T/C [7]: 92.7% | viability, T/C [8]: 92.9% | viability, T/C [9]: 99.4% | viability, T/C [10]: 108% | viability, T/C [11]: 66.1% | viability, T/C [12]: 7.74% | viability, T/C [13]: 100% | viability, T/C [14]: 81.8% | viability, T/C [15]: 92.1% | viability, T/C [16]: 115% | viability, T/C [17]: 67.6% | viability, T/C [18]: 6.46% | viability, T/C [19]: 96% | viability, T/C [20]: 93.4% | viability, T/C [21]: 97.7% | viability, T/C [22]: 93.6% | viability, T/C [23]: 72% | viability, T/C [24]: 5.53% | viability, T/C [25]: 79% | viability, T/C [26]: 83.8% | viability, T/C [27]: 91.4% | viability, T/C [28]: 74% | viability, T/C [29]: 57.3% | viability, T/C [30]: 5.49% | viability, T/C [31]: 77.8% | viability, T/C [32]: 73.8% | viability, T/C [33]: 62% | viability, T/C [34]: 54.5% | viability, T/C [35]: 45.2% | viability, T/C [36]: 6.69%
